Results taken from patent US12569499B2, “Intravenous formulations of RK-33” (NATSAR PHARMACEUTICALS, INC., priority 2021, dated 2026).
Values after ≈ are worked out from the molar mass of the structure shown.

Legend:
[1] = Formulation appearance (color, visual precipitation, clarity); type: physicochemical; details: with 50% PEG 200 and 4% HPβCD
Procedure: RK-33 formulations comprising of various combinations of solvents and polymers were prepared and analyzed for color, visual precipitation and clarity.
Formulations comprising of various combinations of solvents and polymers were prepared with an intralipid emulsion used to provide calories to patients who receive an injection into the vein. The prepared formulations were then analyzed for color, visual precipitation and clarity.
Formulations comprising of various combinations of solvents and polymers, including Captisol®, were prepared. The formulations were analyzed for color, visual precipitation and clarity.

DDX3 = DDX3 (Homo sapiens, UniProt O00571); details: Oncogene 27(28): 3912-3922 (2008); cited from earlier work
Chain of DDX3 (O00571 whole entry): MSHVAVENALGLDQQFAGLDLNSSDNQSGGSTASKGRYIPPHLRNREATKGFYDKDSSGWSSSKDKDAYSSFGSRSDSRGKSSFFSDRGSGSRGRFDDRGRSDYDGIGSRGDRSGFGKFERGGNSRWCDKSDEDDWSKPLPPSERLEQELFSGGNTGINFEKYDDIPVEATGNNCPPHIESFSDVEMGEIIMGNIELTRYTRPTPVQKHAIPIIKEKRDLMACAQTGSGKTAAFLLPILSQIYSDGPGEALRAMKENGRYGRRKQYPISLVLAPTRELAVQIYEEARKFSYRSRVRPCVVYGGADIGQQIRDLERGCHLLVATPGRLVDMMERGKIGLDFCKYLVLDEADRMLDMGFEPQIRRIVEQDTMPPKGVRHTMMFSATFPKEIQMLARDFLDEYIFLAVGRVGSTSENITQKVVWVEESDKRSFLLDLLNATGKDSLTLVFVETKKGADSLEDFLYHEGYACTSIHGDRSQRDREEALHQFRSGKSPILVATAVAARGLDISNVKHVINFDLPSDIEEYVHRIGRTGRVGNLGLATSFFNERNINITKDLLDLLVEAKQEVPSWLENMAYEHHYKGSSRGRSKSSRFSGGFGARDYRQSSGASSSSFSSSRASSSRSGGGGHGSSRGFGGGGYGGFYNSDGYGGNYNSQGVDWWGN

[2] = Qualitative solubility of RK-33 in various solubilizers; type: physicochemical; details: for solubility: thermodynamic from solid
Procedure: The degree of solubility of RK-33 in various solubilizers were tested. RK-33 was added to the solubilizer and observed for formation of homogenous molecular dispersion and physical appearance.

tumor cells = details: sarcoma, breast, prostate, colorectal, lung, medulloblastoma; cited from earlier work

COc1ccc(Cn2c3ncnc4c(ncn4Cc4ccc(OC)cc4)c-3nc2=O)cc1 [RK-33]
RK-33 formulation concentration achieved [1]: 2.5 mg/mL | Effect of targeting DDX3 on cells (DDX3): promotes cell death | solubility ([2]; aqueous buffer, solvent Water (pH 4)): < 1000 µg/mL | solubility ([2]; aqueous buffer, solvent Water (pH 8)): < 1000 µg/mL | solubility ([2]; aqueous buffer, solvent Water (pH 10)): < 1000 µg/mL | solubility ([2]; oil or lipid, solvent Corn oil): < 1000 µg/mL | solubility ([2]; oil or lipid, solvent Gelucire 44/14): < 1000 µg/mL | solubility ([2]; oil or lipid, solvent Labrafil 1944CS): < 1000 µg/mL | solubility ([2]; oil or lipid, solvent Miglyol 810): < 1000 µg/mL | solubility ([2]; oil or lipid, solvent Oleic acid): < 1000 µg/mL | solubility ([2]; oil or lipid, solvent Olive oil): < 1000 µg/mL | solubility ([2]; organic solvent or mixture, solvent Benzyl alcohol): > 250000 µg/mL | solubility ([2]; organic solvent or mixture, solvent DMA): > 100000 µg/mL | solubility ([2]; organic solvent or mixture, solvent DMSO): > 100000 µg/mL | solubility ([2]; organic solvent or mixture, solvent Ethanol): < 1000 µg/mL | solubility ([2]; organic solvent or mixture, solvent Glycerin): < 1000 µg/mL | solubility ([2]; organic solvent or mixture, solvent Glycerol formal): > 75000 µg/mL | solubility ([2]; organic solvent or mixture, solvent NMP): > 100000 µg/mL | solubility ([2]; organic solvent or mixture, solvent PEG 200): ~12000 µg/mL (≈ 28000 µM) | solubility ([2]; organic solvent or mixture, solvent PEG300): ~10000 µg/mL (≈ 23300 µM) | solubility ([2]; organic solvent or mixture, solvent PEG 400): 5000 to 10000 µg/mL (≈ 11700 to 23300 µM) | solubility ([2]; organic solvent or mixture, solvent PG): 1000 to 5000 µg/mL (≈ 2330 to 11700 µM) | solubility ([2]; simulated gastric fluid, solvent Water (pH 1.6)): < 1000 µg/mL | Observation ([2]; solvent Benzyl alcohol): Clear, yellow colored solution | Observation ([2]; solvent Corn oil): Dispersion | Observation ([2]; solvent DMA): Clear, yellow colored solution | Observation ([2]; solvent DMSO): Clear, yellow colored solution | Observation ([2]; solvent Ethanol): Yellow dispersion | Observation ([2]; solvent Gelucire 44/14): Dispersion | Observation ([2]; solvent Glycerin): Dispersion | Observation ([2]; solvent Glycerol formal): Clear, yellow colored solution | Observation ([2]; solvent Labrafil 1944CS): Dispersion | Observation ([2]; solvent Miglyol 810): Dispersion | Observation ([2]; solvent NMP): Clear, yellow colored solution | Observation ([2]; solvent Oleic acid): Dispersion | Observation ([2]; solvent Olive oil): Dispersion | Observation ([2]; solvent PEG 200): Clear, yellow colored solution | Observation ([2]; solvent PEG300): Clear, yellow colored solution | Observation ([2]; solvent PEG 400): Clear, yellow colored solution | Observation ([2]; solvent PG): Clear, yellow colored solution | Observation ([2]; solvent Water): Poor wettability | Observation ([2]; solvent Water (pH 1.6)): Poor wettability | Observation ([2]; solvent Water (pH 4)): Poor wettability | Observation ([2]; solvent Water (pH 8)): Poor wettability | Observation ([2]; solvent Water (pH 10)): Poor wettability | solubility ([2]; solvent Water): < 1000 µg/mL | Inhibiting the growth of tumor cells (tumor cells): effective results in inhibiting the growth of tumor cells
